Usually pIC50 stands for the negative decadic logarithm of the IC50, by convention in mol/L. A word on the pKi: it is the negative decadic logarithm of the Ki, by convention in mol/L.

The record followed here is ChEMBL document CHEMBL4823263, “Discovery of 2-(3-(3-Carbamoylpiperidin-1-yl)phenoxy)acetic Acid Derivatives as Novel Small-Molecule Inhibitors of the β-Catenin/B-Cell Lymphoma 9 Protein-Protein Interaction” (J Med Chem, 2021).

pIC50, pKi: −log10 of the molar value.

The subject of assay [1] is SW480. The experiment in a line: Inhibition of Wnt/beta-catenin transactivation signalling in human SW480 cells harboring mutant tcf4 binding sites assessed as relative activity at 12.5 uM incubated for 24 hrs by FOPFlash luciferase assay relative to control. On the set-up: scale not given: the % may be the effect or the level left. It counts as cell-based.
Assay [2] addresses T1, beta-catenin-B-cell lymphoma 9 protein complex (Homo sapiens, UniProt P35222).
T1 sequence (P35222 whole entry): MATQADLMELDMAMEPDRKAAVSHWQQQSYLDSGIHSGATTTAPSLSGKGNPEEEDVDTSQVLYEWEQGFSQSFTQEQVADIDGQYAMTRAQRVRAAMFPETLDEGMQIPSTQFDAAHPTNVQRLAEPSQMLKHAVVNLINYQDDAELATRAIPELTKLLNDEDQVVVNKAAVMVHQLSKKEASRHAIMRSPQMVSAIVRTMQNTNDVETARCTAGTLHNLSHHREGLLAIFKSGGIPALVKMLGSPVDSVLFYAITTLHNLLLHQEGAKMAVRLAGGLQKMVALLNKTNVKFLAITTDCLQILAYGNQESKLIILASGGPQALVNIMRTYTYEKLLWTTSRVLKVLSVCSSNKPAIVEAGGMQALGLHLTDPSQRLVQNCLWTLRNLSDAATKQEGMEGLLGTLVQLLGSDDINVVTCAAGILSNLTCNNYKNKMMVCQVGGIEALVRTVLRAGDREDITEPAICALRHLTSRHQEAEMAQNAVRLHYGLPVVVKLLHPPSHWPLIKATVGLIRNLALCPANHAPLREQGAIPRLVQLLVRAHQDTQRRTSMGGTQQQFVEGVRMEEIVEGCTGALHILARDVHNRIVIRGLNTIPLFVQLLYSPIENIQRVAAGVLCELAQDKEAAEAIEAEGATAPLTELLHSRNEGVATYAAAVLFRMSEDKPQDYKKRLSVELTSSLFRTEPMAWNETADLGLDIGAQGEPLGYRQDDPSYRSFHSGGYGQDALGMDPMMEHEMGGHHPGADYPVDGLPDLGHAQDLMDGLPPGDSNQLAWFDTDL
T1 sequence (O00512 whole entry): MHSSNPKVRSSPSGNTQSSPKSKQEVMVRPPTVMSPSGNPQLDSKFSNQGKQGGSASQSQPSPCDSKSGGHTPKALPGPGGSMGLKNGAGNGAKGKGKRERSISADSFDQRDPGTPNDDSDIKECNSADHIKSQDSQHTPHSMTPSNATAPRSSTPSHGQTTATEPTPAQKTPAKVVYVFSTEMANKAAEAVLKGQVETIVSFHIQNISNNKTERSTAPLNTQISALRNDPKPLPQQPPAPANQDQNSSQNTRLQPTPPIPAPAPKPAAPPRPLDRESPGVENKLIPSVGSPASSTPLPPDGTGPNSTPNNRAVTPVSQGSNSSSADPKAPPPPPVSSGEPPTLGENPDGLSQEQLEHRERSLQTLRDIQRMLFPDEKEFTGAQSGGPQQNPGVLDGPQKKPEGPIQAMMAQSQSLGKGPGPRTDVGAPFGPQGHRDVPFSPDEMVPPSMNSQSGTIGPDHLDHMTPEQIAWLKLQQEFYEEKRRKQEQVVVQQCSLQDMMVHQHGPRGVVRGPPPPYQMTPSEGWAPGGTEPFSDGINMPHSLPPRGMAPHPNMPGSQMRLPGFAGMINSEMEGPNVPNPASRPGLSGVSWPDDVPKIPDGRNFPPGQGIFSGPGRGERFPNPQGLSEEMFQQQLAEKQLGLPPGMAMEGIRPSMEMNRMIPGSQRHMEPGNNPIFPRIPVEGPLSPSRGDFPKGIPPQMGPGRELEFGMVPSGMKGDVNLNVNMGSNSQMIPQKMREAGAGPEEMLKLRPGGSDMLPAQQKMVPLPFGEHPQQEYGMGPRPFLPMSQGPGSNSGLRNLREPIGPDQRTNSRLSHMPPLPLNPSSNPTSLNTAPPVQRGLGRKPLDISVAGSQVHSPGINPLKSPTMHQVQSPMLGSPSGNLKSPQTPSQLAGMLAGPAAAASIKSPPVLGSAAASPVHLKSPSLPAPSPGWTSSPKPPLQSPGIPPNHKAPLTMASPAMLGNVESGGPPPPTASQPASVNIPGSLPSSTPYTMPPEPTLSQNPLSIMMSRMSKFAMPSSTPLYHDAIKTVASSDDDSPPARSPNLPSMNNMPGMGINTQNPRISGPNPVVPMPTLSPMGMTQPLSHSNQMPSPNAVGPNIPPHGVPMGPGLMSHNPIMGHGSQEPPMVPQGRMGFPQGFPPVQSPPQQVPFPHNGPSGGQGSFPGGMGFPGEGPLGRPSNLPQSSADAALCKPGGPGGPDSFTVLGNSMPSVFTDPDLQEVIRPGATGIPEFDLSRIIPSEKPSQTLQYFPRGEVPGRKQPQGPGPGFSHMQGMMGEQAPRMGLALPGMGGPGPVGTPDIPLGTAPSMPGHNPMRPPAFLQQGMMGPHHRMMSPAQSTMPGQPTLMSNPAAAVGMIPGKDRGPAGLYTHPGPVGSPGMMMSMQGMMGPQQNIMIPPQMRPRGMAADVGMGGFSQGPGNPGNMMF
Kind of assay: Inhibition of full length C-terminal 6-His-tagged beta-catenin (1 to 781 residues) (unknown origin) expressed in Escherichia coli BL21 (DE3)-N-terminal biotinylated human BCL9 (350 to 375 residues) protein-protein interaction incubated for 1 hr by Alphascreen assay. In general terms: Bead proximity is the source of the signal in Alpha formats.

Assay [3] relates to SW480. The experiment in a line: Antiproliferative activity against human SW480 cells incubated for 72 hrs by MTS assay. The conditions noted are these: SW480, 72 h. It counts as functional, cell-based. (Formazan colour is commonly taken as a measure of viable cells.)
For the next assay, the system named is MDA-MB-231. The experiment in a line: Antiproliferative activity against human MDA-MB-231 cells incubated for 72 hrs by MTS assay. It counts as functional, cell-based. The conditions noted are these: MDA-MB-231, 72 h.
In another assay the test system is MCF-10A. Kind of assay: Antiproliferative activity against human MCF10A cells incubated for 72 hrs by MTS assay. It counts as functional, cell-based.
The next assay concerns MDA-MB-468. The experiment in a line: Antiproliferative activity against human MDA-MB-468 cells incubated for 72 hrs by MTS assay. The conditions noted are these: MDA-MB-468, 72 h. It counts as functional, cell-based.
Assay [4] has as its system SW480. The experiment in a line: Inhibition of Wnt/beta-catenin transactivation signalling in human SW480 cells harboring mutant tcf4 binding sites assessed as relative activity at 3.125 uM incubated for 24 hrs by FOPFlash luciferase assay relative to control. The format is cell-based. On the set-up: scale not given: the % may be the effect or the level left.
The test system of assay [5] is SW480. The experiment in a line: (§1) Inhibition of Wnt/beta-catenin transactivation signalling in human SW480 cells harboring wild type tcf4 binding sites incubated for 24 hrs by TOPFlash luciferase assay. The format is cell-based.
Assay [6] is described as follows: as §1. It counts as cell-based.
For assay [7], the system named is SW480. The experiment in a line: Inhibition of Wnt/beta-catenin transactivation signalling in human SW480 cells harboring mutant tcf4 binding sites assessed as relative activity at 6.25 uM incubated for 24 hrs by FOPFlash luciferase assay relative to control. The format is cell-based. On the set-up: scale not given: the % may be the effect or the level left.
A further assay deals with HCT-116. The experiment in a line: Antiproliferative activity against human HCT116 cells incubated for 72 hrs by MTS assay. The format is functional, cell-based. As to conditions: HCT-116, 72 h.

With `COc1cccc(S(=O)(=O)NC(=O)C(C)(C)Oc2cccc(N3CCC[C@H](C(=O)N(Cc4ccc(-c5cccs5)cc4)C4CC4)C3)c2)c1`, the Activity in the assay on SW480 [1] was 54%; with SW480 [4], 98%; with SW480 [5], “Dose-Dependent Effect”; with SW480 [7], 81%. For the same compound, the negative logarithm of the IC50 (pIC50) was 5.54 in assay [2]; 4.55 in the assay with SW480 [3]; 4.70 in the assay with MDA-MB-231; 4.52 in the assay on MCF-10A; 4.81 in the assay on MDA-MB-468; 5.11 in [6]. Also, the pIC50 with HCT-116 was 4.52. Besides, the negative-log Ki (pKi) in assay [2] is 5.64.
